Data taken from patent publication US10232013B2, “Use of an antimicrobial peptide TP4 in treating a cancer” (Academia Sinica, priority 2016, dated 2019).
Where no end group is shown, it is not given here.

Tests used:
[1] = system: MB231 tumors; set-up: species or system BALB/c nu/nu mice; details: in vivo
Text: Female BALB/c nu/nu mice were obtained from BioLASCO Taiwan, Co., Ltd., and housed at the Laboratory Animal Facility, National Taiwan Ocean University, Keelung, Taiwan. Mice were maintained in pathogen-free sterile isolators, according to the guidelines of the Council of Agriculture (COA, Taiwan), and all food, water, caging, and bedding were sterilized before use. The animal protocol (103034) was approved by the Institutional Animal Care and Use Committee (IACUC) of the College of Life Science, National Taiwan Ocean University. For the TP4 treatment assay, nude mice with pre-growth MB231 tumors (n=5 for each group) were subcutaneously injected with TP4 (500 μg in 50 μL distilled water plus 10 μL KY jelly (Johnson & Johnson)) every two days for a total of fourteen times, by which time the tumors had reached an average volume of 30-50 mm^3 in size. Age-matched control nude mice without tumor xenografts were injected with KY jelly (10 μL plus 50 μL distilled water). Tumor size was calculated every two days, using the following formula: volume=[(height×length×width)×3.1416]/6. Mice were sacrificed 28 days after the beginning of TP4 treatment, and the tumors were harvested and weighed. Tumor samples were fixed with formalin and embedded with paraffin. Paraffin sections were stained by Hematoxylin & Eosin (H&E) and immunostained with Ki-67 antibody (Cell Signaling, clone D2H10, 1:100). […]

[2] = MTS cell viability assay, HDF; format: cell-based; details: human, HDF dermal fibroblasts, mean±SD, read-out: Cellular toxicity (cell viability), MTS assay
Description: Cell-lines used in this study were purchased from the Bioresource Collection and Research Center (BCRC) in and the cells were cultured by the standard cell culture procedures and conditions provided by the BCRC. MB231 (BCRC 60425), MB453 (BCRC 60429), and HDF cells were cultured as previously described by Ting et al. MCF7 […] cells were maintained in α-MEM medium (ThermoFisher Scientific) supplemented with 2 mM L-glutamine, 10% FBS, 0.1 mM non-essential amino acids, 1 mM sodium pyruvate, and antibiotics (100 U mL^−1 penicillin G and […] streptomycin). M10 (BCRC 60197) cells were maintained in α-MEM medium (ThermoFisher Scientific) supplemented with 10% FBS and antibiotics. With the exception of MB231 and MB453, all cells were cultured at 37° C. with 5% CO2. For the cell viability and transfection assay, 1×10^4 cells [5×10^3 M10 cells were seeded and cultured for 48 h to allow the cells sufficient time for attachment] were seeded into the wells of a 96-well plate and cultured overnight. For the transfection assays, cells were transfected with 0.1-0.4 μg FOSB/FOSAB expression plasmid (Origene Technology Inc.) and cell viability was determined after 72 h. The transfection efficiencies (number of cells expressing eGFP/all cells) of the MB231 transfection assays were determined by observing ten randomly selected fields (from three independent transfections) of control GFP plasmid transfections under an inverted microscope (Olympus, IX71) coupled to a digital camera (Olympus DP80), using an […] (LCPlanFI 20×/0.40 Ph1). CellSens standard software (Olympus) was used for image acquisition. During the drug treatment assay, inhibitors (PD98059, BAPTA-AM, and AlP II) were added 30 min prior to TP4, and cell viability was determined at indicated time-points. Transfection was performed using LipofectAMINE™ 3000 (ThermoFisher Scientific), according to the manufacturer's recommendations. Knock-down cells were generated by transducing MB231 cells with pre-synthesized FOSB (or control) shRNA lentiviral particles (Santa Cruz Biotechnology), and selecting puromycin-resistant cells in accordance with the manufacturer's standard protocol. MB231 or M10 cells stably expressing eGFP or mOrange2 were generated through transfection with peGFP-puromycin or pmOrange2-C1 plasmid, followed by puromycin (5 μg mL^−1) or G418 (500 μg mL^−1) selection as described above.
Cell viability was quantitatively analyzed using the CellTiter-Glo® Luminescent Cell Viability Assay kit (ATP assay) and CellTiter 96® AQueous Non-Radioactive Cell Proliferation Assay kit (MTS assay) (Promega) in accordance with the manufacturer's protocol. For MTS assay, 1×10^4 cells were seeded into the wells of a 96-well plate and cultured overnight [5×10^3 M10 cells were seeded and cultured for 48 h to enable sufficient well attachment]. Cells were subsequently treated with different doses of TP4 (2.5-20 μg mL^−1) and harvested at the indicated time-points (3-24 h). Reaction mixtures (20 μL: MTS+PMS, using a ratio 20:1) were directly added to the cells, and the plates were incubated for 3 h at 37° C. Absorbance at 490 nm is directly proportional to the number of living cells in culture and was measured using a photometer (SpectraMax® i3, Molecular Devices). ATP assay was performed as previously described by Ting et al. Lactate dehydrogenase (LDH) assays were performed by quantitatively measuring cell lysis with a Cytotoxicity Detection Kit^PLUS (LDH) (Roche) in accordance with the manufacturer's protocol. The LDH standard was purchased from Cayman Chemical. Briefly, 1×10^4 cells were seeded into the wells of a 96-well plate and cultured overnight. Culture media were replaced with fresh medium containing 1% FBS and cells were subsequently treated with different doses of TP4 (2.5-20 μg mL^−1). Supernatants were harvested at 3 h. […]

With “FIHHIIGGLFSAGKAIHRLIRRRRR [TP4, tilapia piscidin 4]” the mouse body weight [1] was “no significant differences”, the “body weight and adverse side-effects” value ([1]; mouse) was “without affecting body weight or causing adverse side-effects” and the viability at 3 h, 2.5 μg/mL ([2]; TP4 2.5 μg/mL, 3 h) was 105 ± 6.49%. The viability at 6 h, 2.5 μg/mL ([2]; TP4 2.5 μg/mL, 6 h) was 98.6 ± 4.42%, the viability at 12 h, 2.5 μg/mL ([2]; TP4 2.5 μg/mL, 12 h) was 100 ± 4.74% and the viability at 24 h, 2.5 μg/mL ([2]; TP4 2.5 μg/mL, 24 h) was 97.2 ± 5.62%. It also gave a viability at 3 h, 5 μg/mL ([2]; TP4 5.0 μg/mL, 3 h) of 103 ± 5.88%, a viability at 6 h, 5 μg/mL ([2]; TP4 5.0 μg/mL, 6 h) of 96.8 ± 3.43% and a viability at 12 h, 5 μg/mL ([2]; TP4 5.0 μg/mL, 12 h) of 93.8 ± 3.81%. For the same sequence, the viability at 24 h, 5 μg/mL ([2]; TP4 5.0 μg/mL, 24 h) was 92.7 ± 6.58%, the viability at 3 h, 10 μg/mL ([2]; TP4 10.0 μg/mL, 3 h) was 102 ± 9.49% and the viability at 6 h, 10 μg/mL ([2]; TP4 10.0 μg/mL, 6 h) was 92.9 ± 2.98%. For the same sequence, the viability at 12 h, 10 μg/mL ([2]; TP4 10.0 μg/mL, 12 h) was 89.6 ± 3.87%, the viability at 24 h, 10 μg/mL ([2]; TP4 10.0 μg/mL, 24 h) was 86.1 ± 9.39% and the viability at 3 h, 15 μg/mL ([2]; TP4 15.0 μg/mL, 3 h) was 103 ± 9030%. The viability at 6 h, 15 μg/mL ([2]; TP4 15.0 μg/mL, 6 h) was 90.8 ± 6.82%, the viability at 12 h, 15 μg/mL ([2]; TP4 15.0 μg/mL, 12 h) was 85.9 ± 4.24% and the viability at 24 h, 15 μg/mL ([2]; TP4 15.0 μg/mL, 24 h) was 82.2 ± 11.4%. It also gave a viability at 3 h, 20 μg/mL ([2]; TP4 20.0 μg/mL, 3 h) of 98.6 ± 13%, a viability at 6 h, 20 μg/mL ([2]; TP4 20.0 μg/mL, 6 h) of 81 ± 12.3% and a viability at 12 h, 20 μg/mL ([2]; TP4 20.0 μg/mL, 12 h) of 80.5 ± 1.58%. The viability at 24 h, 20 μg/mL ([2]; TP4 20.0 μg/mL, 24 h) was 72.2 ± 13.5%.
